# Legend:
# ORF132 = test system: T1, ORF132; assay: isocitrate dehydrogenase activity assay kit, absorbance […] nm, NADH standard curve, Michaelis-Menten fit; assay type: biochemical, Pandoravirus massiliensis; conditions: 37 °C, 100 µL, kit buffer; NAD+ or NADP+ co-substrate not specified; varied substrate implied to be isocitrate
# T1 construct: full-length ORF, 146 residues; N-terminal Strep-tag, codon-optimised synthetic gene in pET22b(+); E. coli BL21(DE3); StrepTrap purified
# human IDH = test system: T2, human IDH; conditions: 37 °C, 100 µL, kit buffer; NAD+ or NADP+ co-substrate not specified; varied substrate implied to be isocitrate
# T2 construct: gene IDH1
compound,measurement,setting,value
O=C(O)C[C@H](C(=O)O)[C@@H](O)C(=O)O [isocitrate],Km,ORF132,51.8 µM
same,Km,human IDH,585 µM
